Assay results published in US6664224B2, “Quaternary ammonium salt and process for the preparation thereof” (priority 2000, dated 2003).

Experiments:
[1] = system: Escherichia coli K12 W 3110; test: Minimum development inhibiting concentration (MIC) against bacteria, broth dilution method; assay type: cell-based; conditions: 37° C. 24 hours
Protocol: A bacteria solution in stationary state which had been adjusted with a nutrient broth according to an ordinary broth dilution method such that the concentration of bacterial suspension reached 10^6 cell/ml was added to chemical solutions having concentrations which vary stepwise where it was then allowed to stand at a temperature of 37° C. for 24 hours for culture. The bacteria solution was then examined to see if the proliferation of bacteria occurred. Thus, MIC was determined.
Escherichia coli K12 W 3110 was used as a sample bacterium. Compounds obtained in Examples 1 to 9 and benzalkonium chloride prepared in Comparative Example 1 were used as test samples.
The compounds obtained in Examples 10 to 19 and benzalkonium chloride were determined for MIC value against Escherichia coli K12 W 3110 in the same manner as in Test Example 3.

[2] = system: Staphylococcus aureus IFO 12732; test: MIC by agar plate dilution method; assay type: cell-based; conditions: S. aureus, 37° C. 24 hours
Protocol: MIC value was determined by an agar plate dilution method according to the Law of Japanese Society of Chemotherapy. In some detail, a bacteria solution in stationary state which had been adjusted with a nutrient broth such that the concentration of bacterial suspension reached 10^6 cell/ml was added to agar culture media containing chemical solutions having concentrations which vary in two stages where it was then allowed to stand at a temperature of 37° C. for 24 hours for culture. The bacteria solution was then examined to see if the proliferation of bacteria occurred. Thus, MIC was determined.
The following three kinds of bacteria were used as sample bacteria:
Staphylococcus aureus IFO 12732 (S. aureus)

rat = test: Oral toxicity test on rat (LD50); assay type: in vivo
Protocol: The quaternary ammonium salt of the invention is a compound having an extremely high safety, i.e., LD50 (rat) of not smaller than 2,000 mg/kg in oral toxicity test on rat.
The sample 4BAMP-6C thus obtained was then determined for oral toxicity (LD50: rat). The results were greater than 2,000 mg/kg.

[3] = Interaction with eye drop components (visual transparency); assay type: physicochemical; conditions: for Results (transparency of neutralized solution): in 1% sodium chloride solution
Protocol: Eye drop components and the preservative of the invention were dissolved in a 1% sodium chloride solution. The solution was then neutralized with a proper amount of diluted hydrochloric acid or sodium hydroxide. The neutralized solution thus obtained was then visually observed for transparency. Chondroitin sodium sulfate (hereinafter abbreviated as “SKA”), sodium hyaluronate (hereinafter abbreviated as “SHA”), sodium cromoglicate (hereinafter abbreviated as “SCA”), sodium dimethylisopropylazulenesulfonate (hereinafter abbreviated as “SDPA”), and flavin-adenine dinucleotide (hereinafter abbreviated as “FA”) were used as the eye drop components. 4BAMP-6C (Example 1) and benzalkonium chloride (Comparative Example 1) were used as test samples of preservative.

E. coli = test: Anti-septic power test (USP XX); assay type: cell-based, Escherichia coli; conditions: test sample 0.002 wt %
Protocol: Solutions prepared according to the formulation set forth in Tables 10 and 11 below were subjected to anti-septic power test according to the method defined in Pharmacopoeia of the United States XX, 873 (1980). The solutions thus tested were then observed for anti-septic power after 1 hour, 4 hours, 24 hours, 7 days, 14 days, 21 days and 28 days. As test microorganisms, E. coli, P. auru. and S. Aureus were used as bacteria and A. niger and C. albicans were used as fungi. 4BAMP-6C and benzalkonium chloride were used as test samples.

cornea = conditions: reported; eye drop; cited from earlier work
[4] = Formulation 1 (chondroitin sodium sulfate 1 wt %)

Substance | MIC Escherichia coli K12 W 3110 [1] [ppm] | MIC [2] [ppm] | oral toxicity LD50 (rat) | Results (transparency of neutralized solution) ([3]; FA 0.1%, 4BAMP-6C 0.1%) | Results (transparency of neutralized solution) ([3]; SCA 3%, 4BAMP-6C 0.1%) | Results (transparency of neutralized solution) ([3]; SDPA 0.05%, 4BAMP-6C 0.1%) | Results (transparency of neutralized solution) ([3]; SHA 0.2%, 4BAMP-6C 0.1%) | Results (transparency of neutralized solution) ([3]; SKA 3%, 4BAMP-6C 0.1%) | time at which the desired anti-septic effect was confirmed (E. coli; [4]) | time at which the desired anti-septic effect was confirmed (E. coli; Formulation 2 (taurin 1 wt %)) | Results (transparency of neutralized solution) ([3]; FA 0.1%, benzalkonium chloride 0.01%) | Results (transparency of neutralized solution) ([3]; SCA 3%, benzalkonium chloride 0.01%) | Results (transparency of neutralized solution) ([3]; SDPA 0.05%, benzalkonium chloride 0.01%) | Results (transparency of neutralized solution) ([3]; SHA 0.2%, benzalkonium chloride 0.01%) | Results (transparency of neutralized solution) ([3]; SKA 3%, benzalkonium chloride 0.01%) | transparency of solutions with eye drop components ([3]; summary of Table 9) | amount incorporated at which the cornea is damaged (cornea) [%]
1,4-bis(N,N-dihexyl-N-methylammoniomethyl)phenylene dichloride [Example 4BAMP-6C] | 2 | <2 | greater than 2,000 mg/kg | Transparent | Transparent | Transparent | Transparent | Transparent | 1 h | 1 h | – | – | – | – | – | – | –
benzalkonium chloride [reference compound] | 8 | 16 | – | – | – | – | – | – | 24 hrs. hr. | 24 hrs. hr. | Clouded | Clouded | Clouded | Clouded | Clouded | slightly opaque | ≥ 0.01
